{
  "source": "patent US20110256121A1",
  "about": "“METHODS AND KITS FOR DIAGNOSING OR MONITORING AUTOIMMUNE AND CHRONIC INFLAMMATORY DISEASES” (THE REGENTS OF THE UNIVERSITY OF MICHIGAN, priority 2008, published 2011)",
  "format_in_all_cases": "cell-based, human",
  "key": {"T cell gene expression": {"test_system": "T cell gene expression", "assay": "Microarray detection of KIR expression in 5-azaC treated T cells", "protocol": "T cell purification and culture. Peripheral blood mononuclear cells (PBMC) were isolated from healthy donors by density gradient centrifugation, stimulated for 18 hours with 1 μg/mlphytohemagglutinin (PHA) (Murex, Norcross, Ga.), then treated or not with 5 μm 5-azacytidine (5-azaC, Sigma, St. Louis, Mo.) for 72 hours as described (6). Total T cells, CD4^+ T cells or CD8′ T cells then were purified using the pan T cell isolation kit II or the CD4^+ and CD8^+ T cell isolation kit II from Miltenyi (Auburn, Calif.). T cells were typically >94% CD3^+ by flow cytometry. Jurkat cells (E6-1) were maintained in culture as described (11). This protocol was approved by the University of Michigan Institutional Review Board.\nMicroarray analysis. RNA from 5-azaC treated and untreated T cells was analyzed with HG-U133A arrays (Affymetrix, Santa Clara Calif.), containing 22283 probe-sets representing ˜13000 distinct genes, as described (6). Probe-set intensities were obtained and normalized as described (12). Two-sample T-tests were used to compare groups, and fold-changes were determined using the ratio of the group means, after replacing means of less than 50 with 50. The array data are available from NCBI's Gene Expression Omnibus using series accession number GSE6008.\nMicroarray detection of KIR expression in 5-azaC treated T cells. Effects of DNA methylation inhibition on T cell gene expression were tested by stimulating PBMC from healthy donors with PHA, treating with 5-azaC, and comparing gene expression patterns in treated and untreated T cells with microarrays. 682 probe-sets were obtained giving p<0.01, out of a total of 22283 probe-sets, so that approximately 223 of the 682 probe-sets were expected to be false-positives. Further demanding at least a 1.5 fold difference in the means of treated and untreated groups reduced the list to 250 probe-sets, 6 of which were KIR genes (KIR2DL1 5.7 fold p=0.003, KIR3DL1 5.7 fold p=0.001, KIR2DL2 4.2 fold p=0.0005, KIR2DS4 2.8 fold p=0.009, KIR2DL3 2.3 fold p=0.004, and KIR2DL4 1.7 fold p=0.008), out of a total of 12 KIR genes on the array, indicating enrichment of this gene family (FIG. 24)."}, "KIR2DL2 promoter": {"test_system": "KIR2DL2 promoter", "assay": "KIR2DL2 promoter methylation, bisulfite sequencing and MS-PCR", "protocol": "Bisulfite conversion and DNA sequencing. Genomic DNA was isolated from T cells using FlexiGene DNA Kits (QIAGEN) then treated with sodium bisulfite as described (15). HotStar Taq (QIAGEN) was used for amplification with the following conditions: initial incubation 95° C. 15 min, then 45 cycles 95° C. 30 s, 52° C. 30 s and 72° C. 30 s. PCR products were purified using QIAEXII Gel Extraction Kits (QIAGEN), and cloned using the pGEM-T Easy Vector System (Promega, Madison, Wis.). 10 cloned fragments were sequenced for each sample by the University of Michigan Sequencing Core.\nReal-time quantitative methylation specific PCR (MSP). Three real-time MSP assays were developed for detection and quantitation of each KIR gene: one specific for the bisulfite-converted methylated sequence, one for the bisulfite-converted unmethylated sequence, and a loading control comprising primers to an adjacent bisulfite-converted sequence lacking CG pairs. MSP reactions were performed using QuantiTect SYBR Green PCR kits (QIAGEN) according to the manufacture's protocol using […] of each primer, 100 ng converted DNA and the Rotor-Gene 3000. […] Levels of amplified methylated and unmethylated fragments were standardized to the control fragment, and the methylation index calculated as […]"}, "KIR": {"test_system": "KIR", "assay": "KIR expression on 5-azaC treated T cells, anti-KIR antibody cocktail, flow cytometry", "description": "Antibodies: Unconjugated and PE-conjugated anti-CD158d (KIR2DL4) were purchased from R&D Systems, Minneapolis, Minn. and unconjugated and PE-conjugated anti-NKB1 (KIR3DL1), anti-perforin antibodies and isotype matched control antibodies were obtained from BD PharMingen, San Diego Calif. PE-conjugated anti-CD158i (KIR2DS4) was obtained from Beckman Coulter (Fullerton Calif.). Anti-CD4-Cy5, anti-CD8-FITC, and PE-conjugated antibodies to and KIR2DS2 (anti-CD158b) were obtained from BD PharMingen, KIR2DL1/2DS2 (CD158a/h) and KIR3DL1/3DS1 (CD158e1/e2) from Beckman Coulter, and 2DL1/2DL3/2DS2 (anti-CD158 b1/b2/j (GL183) was purchased from R&D Systems. Minneapolis, Minn.). Ten microliters of each PE-conjugated anti-KIR antibody were mixed to form a “cocktail” used to stain the cells. […] Following staining, the cells were fixed in 1% paraformaldehyde and kept at 4° C. until analyzed. […]\nCD4+ and CD8+ T cells demethylate and express KIR genes following treatment with the DNA methylation inhibitor 5-azaC. PBMC from 11 healthy subjects were stimulated with PHA, treated with 5-azaC, then KIR expression was measured on untreated and treated CD4+ and CD8+ cells using a “cocktail” of anti-KIR antibodies and flow cytometry as described in Materials and Methods above."}},
  "data": [
    {"smiles": "Nc1ncn([C@@H]2O[C@H](CO)[C@@H](O)[C@H]2O)c(=O)n1", "note": "[5-azaC, 5-azacytidine]", "values": [
      {"measurement": "KIR2DL2 expression, treated vs untreated", "setting": "T cell gene expression; PHA-stimulated, p=0.0005", "value": 4.2, "unit": "fold"},
      {"measurement": "KIR3DL1 expression, treated vs untreated", "setting": "T cell gene expression; PHA-stimulated, p=0.001", "value": 5.7, "unit": "fold"},
      {"measurement": "KIR2DL1 expression, treated vs untreated", "setting": "T cell gene expression; PHA-stimulated, p=0.003", "value": 5.7, "unit": "fold"},
      {"measurement": "KIR2DL3 expression, treated vs untreated", "setting": "T cell gene expression; PHA-stimulated, p=0.004", "value": 2.3, "unit": "fold"},
      {"measurement": "KIR2DL4 expression, treated vs untreated", "setting": "T cell gene expression; PHA-stimulated, p=0.008", "value": 1.7, "unit": "fold"},
      {"measurement": "KIR2DS4 expression, treated vs untreated", "setting": "T cell gene expression; PHA-stimulated, p=0.009", "value": 2.8, "unit": "fold"},
      {"measurement": "KIR2DS1 expression increase", "setting": "T cell gene expression; not statistically significant", "value": "> 1.5", "unit": "fold"},
      {"measurement": "KIR2DS3 expression increase", "setting": "T cell gene expression; not statistically significant", "value": "> 1.5", "unit": "fold"},
      {"measurement": "KIR3DL2 expression increase", "setting": "T cell gene expression; not statistically significant", "value": "> 1.5", "unit": "fold"},
      {"measurement": "KIR2DL2 promoter methylation pattern, bisulfite sequencing", "setting": "KIR2DL2 promoter; CD4+ and CD8+ cells, 5-azaC treated vs untreated", "value": "generalized demethylation throughout the region"},
      {"measurement": "KIR2DL2 promoter methylation index, MS-PCR", "setting": "KIR2DL2 promoter; CD4+ and CD8+ subsets, p<0.001", "value": "demethylates these regions in all 5 subjects"},
      {"measurement": "expression of additional KIR proteins on T cells", "setting": "KIR", "value": "induced expression of additional KIR proteins including KIR3DL1, KIR2DS4 and KIR2DL2/2DL3"},
      {"measurement": "KIR expression on CD4+ and CD8+ T cells", "setting": "KIR; 11 healthy subjects, PHA, anti-KIR cocktail", "value": "significantly increases KIR expression"}
    ]}
  ]
}
